Where two headings read alike, the source gives them in different places.

The experiment addresses T1, Nav 1.7 (Homo sapiens, UniProt Q15858).
T1 construct: expressed in transfected cells
Put plainly: Whole-cell voltage clamp electrophysiology, manual patch clamp (marker b in Table of Examples). Type of experiment: cell-based. The settings on record: for IC50: read-out: Nav 1.7 activity. The text has this:
a.IonWork Quattro data, b=Manual patch clamp data, c=Automated patch clamp data M=Method
Whole-Cell Voltage Clamp Electrophysiology Assay
Patch-clamp electrophysiology is considered the gold standard technique for investigation of ion channel function and pharmacology. Using this method, sodium channel currents can be measured in cells, which stably (or transiently) express the sodium channel subtype of interest. Application of compounds during such experiments provides a functional measure of the activity and potency of compounds affecting the ion channel of interest.
Electrophysiological studies can also be performed using the whole cell configuration of the standard manual patch clamp technique as described in the literature (e.g. Pflugers Arch., 1981, 391(2), 85-100). In this assay, cells that express the voltage-gated sodium channel protein of interest are exposed to the drugs by conventional microperfusion systems, or by a home-built perfusion system. A suitable voltage stimulus protocol is used to activate the voltage-gated sodium channels.
A suitable voltage stimulus protocol is used to activate voltage-gated sodium channel proteins of interest. A typical stimulus protocol may consist of sweeps of sequential voltage pulses starting from a holding potential (i.e. −65 mV), to a more positive and depolarising test pulse potential (i.e. −10 mV) and finally to a more negative and hyperpolarising potential (i.e. −100 mV). According to the biophysics of the voltage-gated ion channel of interest and interest in channel configuration the voltages and durations of the pulses as well as the overall frequency of sweeps applied might vary. Accordingly, a stimulus protocol was designed to assess compounds due to their potential to block NaV1.7 channels primarily in inactivated state. Selectivity over other voltage-gated sodium channel members was assessed by protocols that reflect the native function of the channels (i.e. heart rate or firing of neurons).
Electrophysiological studies can also be performed using the whole cell configuration of the standard manual patch clamp technique as described in the literature (e.g. Pflugers Arch., 1981, 391(2), 85-100). In this assay, cells that express the human voltage-gated sodium channel protein of interest are exposed to the drugs by conventional microperfusion systems, or by a home-built perfusion system. A suitable voltage stimulus protocol is used to activate the voltage-gated sodium channels. A suitable voltage stimulus protocol may consist of sequential voltage pulses from a holding potential, each first hyperpolarizing the cell, then depolarizing the channels for a brief period. A particularly suitable holding potential may be a voltage allowing a fraction of channels to remain in an inactivated state, like −60 mV. A suitable hyperpolarizing voltage and duration may be −120 mV for 100 ms, and depolarization voltage and duration may be −20 mV for 25 ms, and a suitable frequency of pulses may be 0.1 Hz, but may also have other parameters. Accordingly, a stimulus protocol was designed to assess compounds due to their potential to block NaV1.7 channels primarily in inactivated state. Selectivity over other voltage-gated sodium channel members was assessed by protocols that reflect the native function of the channels (i.e. heart rate or firing of neurons).
For orientation: The patch-clamp technique gives a direct electrical read-out from membranes.

The mark [1] stands for this setting: marker b = Manual patch clamp data.
The mark [2] stands for this setting: marker b: Manual patch clamp data.

T1 sequence (Q15858 whole entry): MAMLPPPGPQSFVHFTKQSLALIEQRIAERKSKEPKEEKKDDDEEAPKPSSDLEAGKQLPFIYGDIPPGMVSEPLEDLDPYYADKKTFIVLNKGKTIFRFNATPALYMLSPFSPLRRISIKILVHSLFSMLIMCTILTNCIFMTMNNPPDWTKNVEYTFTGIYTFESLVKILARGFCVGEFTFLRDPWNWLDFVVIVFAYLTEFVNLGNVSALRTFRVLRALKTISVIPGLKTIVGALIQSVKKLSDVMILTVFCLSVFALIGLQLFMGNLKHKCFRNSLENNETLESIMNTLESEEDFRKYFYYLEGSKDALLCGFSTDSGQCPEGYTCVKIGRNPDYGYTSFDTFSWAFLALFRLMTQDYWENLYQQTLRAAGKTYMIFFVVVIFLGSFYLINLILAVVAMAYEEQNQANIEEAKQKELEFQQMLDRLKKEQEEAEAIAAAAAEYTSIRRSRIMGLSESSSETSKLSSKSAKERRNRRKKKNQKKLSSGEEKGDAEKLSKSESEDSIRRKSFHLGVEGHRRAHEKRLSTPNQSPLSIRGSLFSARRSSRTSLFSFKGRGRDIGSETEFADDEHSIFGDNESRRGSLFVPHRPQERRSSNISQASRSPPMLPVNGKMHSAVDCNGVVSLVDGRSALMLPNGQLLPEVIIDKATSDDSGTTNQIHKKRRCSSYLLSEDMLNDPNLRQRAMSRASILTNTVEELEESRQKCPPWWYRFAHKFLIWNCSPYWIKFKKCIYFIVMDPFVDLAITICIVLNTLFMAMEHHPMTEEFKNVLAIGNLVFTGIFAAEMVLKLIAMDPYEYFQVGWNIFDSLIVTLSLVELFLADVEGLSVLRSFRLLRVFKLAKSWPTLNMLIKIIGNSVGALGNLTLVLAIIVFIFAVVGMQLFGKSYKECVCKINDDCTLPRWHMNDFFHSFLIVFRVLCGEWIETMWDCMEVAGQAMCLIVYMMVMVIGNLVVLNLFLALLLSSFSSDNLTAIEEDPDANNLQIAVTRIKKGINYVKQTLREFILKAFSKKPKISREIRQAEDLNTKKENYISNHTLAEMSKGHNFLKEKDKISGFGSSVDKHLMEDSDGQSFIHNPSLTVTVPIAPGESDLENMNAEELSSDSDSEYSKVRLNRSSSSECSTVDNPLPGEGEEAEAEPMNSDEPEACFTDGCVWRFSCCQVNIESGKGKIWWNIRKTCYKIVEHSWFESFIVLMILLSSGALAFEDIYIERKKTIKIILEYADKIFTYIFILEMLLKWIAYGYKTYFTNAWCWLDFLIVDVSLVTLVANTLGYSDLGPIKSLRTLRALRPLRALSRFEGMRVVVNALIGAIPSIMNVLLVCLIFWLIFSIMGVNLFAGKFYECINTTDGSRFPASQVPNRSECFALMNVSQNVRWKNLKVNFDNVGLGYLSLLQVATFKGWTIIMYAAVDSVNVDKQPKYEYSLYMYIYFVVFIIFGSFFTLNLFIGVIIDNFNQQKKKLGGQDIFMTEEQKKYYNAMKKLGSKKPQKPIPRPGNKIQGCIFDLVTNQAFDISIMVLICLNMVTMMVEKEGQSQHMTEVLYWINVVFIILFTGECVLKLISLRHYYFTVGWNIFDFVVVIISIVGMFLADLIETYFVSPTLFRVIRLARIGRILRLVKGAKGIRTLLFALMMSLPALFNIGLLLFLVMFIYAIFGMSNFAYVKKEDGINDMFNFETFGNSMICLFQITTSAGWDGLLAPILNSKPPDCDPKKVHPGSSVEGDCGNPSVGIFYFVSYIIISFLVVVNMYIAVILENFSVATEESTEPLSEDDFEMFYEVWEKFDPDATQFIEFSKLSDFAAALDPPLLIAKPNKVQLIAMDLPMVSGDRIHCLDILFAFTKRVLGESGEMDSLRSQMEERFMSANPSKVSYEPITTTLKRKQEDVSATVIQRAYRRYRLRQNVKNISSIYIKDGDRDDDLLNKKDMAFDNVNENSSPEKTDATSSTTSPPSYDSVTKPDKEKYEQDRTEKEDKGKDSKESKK

As for `CN(c1ccccc1)c1nc(N)nc(-c2noc(C(=O)N3CCC(OCC(F)(F)F)CC3)n2)n1` [Example 262, 2-N-methyl-2-N-phenyl-6-(5-{[4-(2,2,2-trifluoroethoxy)piperidin-1-yl]carbonyl}-1,2,4-oxadiazol-3-yl)-1,3,5-triazine-2,4-diamine], the IC50 under setting [1] turned out to be 400 nM.

As to `CN(c1ccccc1)c1nc(N)nc(-c2noc(C3CCOC3)n2)n1` (centres unmarked) [Example 48], under setting [2], the IC50 stood at 4630 nM.

Regarding `CN(c1ccccc1)c1nc(N)nc(-c2noc(-c3cccnc3OCC(F)(F)F)n2)n1` [Example 477, 2-N-methyl-2-N-phenyl-6-{5-[2-(2,2,2-trifluoroethoxy)pyridin-3-yl]-1,2,4-oxadiazol-3-yl}-1,3,5-triazine-2,4-diamine], the IC50 under setting [1] amounted to 172 nM.

Regarding `CN(c1nc(N)nc(-c2noc(-c3ccc(OCC(F)(F)F)nc3)n2)n1)c1cccc(F)c1F` [Example 411, 2-N-(2,3-difluorophenyl)-2-N-methyl-6-{5-[6-(2,2,2-trifluoroethoxy)pyridin-3-yl]-1,2,4-oxadiazol-3-yl}-1,3,5-triazine-2,4-diamine], the IC50 under setting [1] was found to be 17 nM.

Take `CN(c1ccccc1)c1nc(N)nc(-c2noc(-c3cncc(N)c3)n2)n1` [Example 54, 6-[5-(5-Amino-pyridin-3-yl)-[1,2,4]oxadiazol-3-yl]-N-methyl-N-phenyl-[1,3,5]triazine-2,4-diamine]: the IC50 under setting [2] was 2220 nM.

On to `Nc1nc(Nc2cccc(Cl)c2F)nc(-c2noc(-c3ccco3)n2)n1` [Example 111, N-(3-Chloro-2-fluoro-phenyl)-6-(5-furan-2-yl-[1,2,4]oxadiazol-3-yl)-[1,3,5]triazine-2,4-diamine], for which, under setting [2], the IC50 turned out to be 54 nM.

Regarding `CN(c1ccccc1)c1nc(N)nc(-c2noc(-c3ccccc3)n2)n1` [Example 10, N-Methyl-N-phenyl-6-(5-phenyl-[1,2,4]oxadiazol-3-yl)-[1,3,5]triazine-2,4-diamine], the IC50 under setting [2] stood at 348 nM.

Take `CN(c1cccc(F)c1)c1nc(N)nc(-c2noc(-c3ccco3)n2)n1` [Example 15, N-(3-Fluoro-phenyl)-6-(5-furan-2-yl-[1,2,4]oxadiazol-3-yl)-N-methyl-[1,3,5]triazine-2,4-diamine]: under setting [2], the IC50 was 152 nM.

As to `CN(c1ccccc1)c1nc(N)nc(-c2noc(N3CCC(COCC(F)(F)F)CC3)n2)n1` [Example 167, 2-N-Methyl-2-N-phenyl-6-(5-{4-[(2,2,2-trifluoroethoxy)methyl]piperidin-1-yl}-1,2,4-oxadiazol-3-yl)-1,3,5-triazine-2,4-diamine], the IC50 under setting [2] came to 235 nM.

On to `CN(c1ccccc1)c1nc(N)nc(-c2noc(-c3cccc(Cl)c3)n2)n1` [Example 35, 6-[5-(3-Chloro-phenyl)-[1,2,4]oxadiazol-3-yl]-N-methyl-N-phenyl-[1,3,5]triazine-2,4-diamine], for which the “Nav 1.7 activity, % at 10 μM” value (10 μM, marker b: Manual patch clamp data) is reported as 44% (10 μM)^b.

With `CN(c1nc(N)nc(-c2noc(-c3ccco3)n2)n1)c1cccc(Cl)c1F` [Example 106, N-(3-Chloro-2-fluoro-phenyl)-6-(5-furan-2-yl-[1,2,4]oxadiazol-3-yl)-N-methyl-[1,3,5]triazine-2,4-diamine], the IC50 under setting [2] came to 82 nM.

With `CCN(c1ccccc1)c1nc(N)nc(-c2noc(-c3nccs3)n2)n1` [Example 38, N-Ethyl-N-phenyl-6-(5-thiazol-2-yl-[1,2,4]oxadiazol-3-yl)-[1,3,5]triazine-2,4-diamine], the IC50 under setting [2] stood at 1120 nM.

Consider `COC(=O)c1ccc(-c2nc(-c3nc(N)nc(N(C)c4ccccc4)n3)no2)s1` [Example 82, 5-{3-[4-amino-6-(methyl-phenyl-amino)-[1,3,5]triazin-2-yl]-[1,2,4]oxadiazol-5-yl}-thiophene-2-carboxylic acid methyl ester], for which, under setting [2], the IC50 was 195 nM.

On to `CN(c1ccc(Cl)cc1)c1nc(N)nc(-c2noc(-c3ccco3)n2)n1` [Example 8, 6-(5-Furan-2-yl-[1,2,4]oxadiazol-3-yl)-N-methyl-N-(4-chlorophenyl)-[1,3,5]triazine-2,4-diamine], for which the IC50 under setting [2] stood at 339 nM.

These data come from patent publication US8895733B2 (Novartis AG, priority 2010, dated 2014).
